From the NIST ThermoML archive (doi:10.1016/j.jct.2011.06.012)

Experiment: xn = mol fraction of the nth substance listed
Settings: Liquid, Bellows volumetry

CC(C)C [2-methylpropane] + O=C=O
mass density [kg/m3]
Settings | x2 = 0.2482 | x2 = 0.4718 | x2 = 0.7506
400 K, 100000 kPa | – | – | 778
400 K, 120000 kPa | 647.91 | 701.98 | 807.55
400 K, 140000 kPa | 662.89 | 720.03 | 832.23
400 K, 160000 kPa | 675.97 | 735.72 | 854.07
400 K, 180000 kPa | 687.97 | 749.97 | 873.25
400 K, 200000 kPa | 698.66 | 763.13 | 890.48
420 K, 20000 kPa | – | 441.54 | –
420 K, 30000 kPa | – | 509.95 | –
420 K, 40000 kPa | – | 550.57 | –
420 K, 50000 kPa | – | 579.87 | –
420 K, 60000 kPa | – | 602.9 | –
420 K, 70000 kPa | – | 622.11 | –
420 K, 80000 kPa | – | 638.65 | –
420 K, 90000 kPa | – | 652.88 | –
420 K, 100000 kPa | – | 665.6 | –
420 K, 120000 kPa | – | 688.04 | –
420 K, 140000 kPa | – | 707.29 | –
420 K, 160000 kPa | – | 723.63 | –
420 K, 180000 kPa | – | 738.5 | –
420 K, 200000 kPa | – | 752.04 | –
440 K, 20000 kPa | 428.1 | 402.95 | –
440 K, 30000 kPa | 479.05 | 481.23 | 473.55
440 K, 40000 kPa | 511.07 | 526.82 | 548.5
440 K, 50000 kPa | 534.44 | 559.05 | 599.76
440 K, 60000 kPa | 553.6 | 584.01 | 637.87
440 K, 70000 kPa | 569.47 | 604.56 | 668.37
440 K, 80000 kPa | 583.24 | 622.24 | 694.04
440 K, 90000 kPa | 595.28 | 637.3 | 716.21
440 K, 100000 kPa | 606.31 | 650.87 | 735.56
440 K, 120000 kPa | 625.43 | 674.34 | 768.56
440 K, 140000 kPa | 641.8 | 694.6 | 796.08
440 K, 160000 kPa | 656.01 | 711.68 | 819.85
440 K, 180000 kPa | 668.66 | 726.86 | 840.83
440 K, 200000 kPa | 680.35 | 741.37 | 859.57
